Laboratory results published in patent US10246489B2, “Peptide inhibitors of calcium oxalate monohydrate crystallization and uses thereof” (UNIVERSITY OF HOUSTON, priority 2013, dated 2019).
Entries after “also recorded” stand apart in the source; their conditions may differ.

Columns and labels:
[1] = In situ calcium ion-selective electrode (ISE) measurement of COM crystallization; details: for percent reduction in COM growth rate: 20 μg/ml additive, supersaturated calcium oxalate S=5.4, stirred, ISE slope in first 40 min vs control
Protocol: The COM growth rate was measured as the slope (dCa/dt) of decreasing Ca^2+ concentration within the first 40 min of crystallization. […] The percent reduction in COM growth rate was calculated by comparing the ISE slopes of peptides and control using the formula, Percent Reduction=[1−(dCa/dt)peptide/(dCa/dt)control]×100%. Data are averages of 2 or 3 measurements (error bars equal two standard deviations);
COM crystals for bulk crystallization studies were synthesized using a reported procedure that produces micron-sized crystals with large basal (100) surfaces. COM crystals prepared with molar composition 0.7 mM CaCl2: 0.7 mM Na2C2O4: 150 mM NaCl are referred to as the control. Growth solutions prepared with peptides used 20 μg/ml of the additive (unless otherwise stated).
As such, measurements reported herein were conducted at a single peptide concentration (20 μg/ml) to assess COM growth inhibition. To facilitate comparison of peptides in Table 1, Applicants calculated the percent reduction in COM growth rate using the relative difference in ISE slopes (units of ppm Ca^2+ per time) for peptide and control samples during the first 40 min of crystallization.
The slope of ISE curves (FIG. 2A) is the temporal change in free Ca^2+ concentration due to COM nucleation (primary and secondary) and crystal growth. Deconvoluting these two processes (nucleation and growth) from ISE data is nontrivial, particularly if one wishes to extract detailed kinetic information of COM growth rates. […] In the current study, the distinct advantage of ISE compared to more traditional approaches is its ease of use and the rapid time for data acquisition that enables high-throughput analysis of large peptide libraries.
A quantitative comparison of peptide efficacy for inhibiting COM crystallization was performed using in situ ISE measurements. The percent inhibition in COM growth rate was calculated using the relative difference in ISE slopes in the presence of 20 μg/mL peptide. […] The effect of Asp with Glu in peptide sequences was measured on COM growth inhibition (Table 2).

[2] = High-throughput colorimetric calcium depletion assay (crystallization half-time); details: 37° C., crystallization volume 600 μL, shaking; logistic fit
Protocol: Free calcium concentration in the crystallization solution was measured by a colorimetric assay using Quantichrome DICA 500 Calcium assay kit (BioAssay Systems, Hayward, Calif.). Standard solutions (0, 0.1, 0.2, 0.3, 0.4, 0.5, and 1 mM) were prepared using calcium solutions provided with the kit. Detection reagent was prepared by mixing equal volumes of reagent A and reagent B according to manufacturer's instructions. A 10 μL sample was withdrawn from the top of each crystallization well without disturbing the bottom and dispensed into a 96-well microplate. 100 μL of detection reagent was added to each well and incubated for 3 minutes at room temperature. The absorbance was measured at 612 nm using Biotek Synergy H4 microplate reader (BioTek, Winooski, Vt.). Calcium concentration was determined using a calibration curve prepared from standard calcium solutions.
Time course of depletion of free calcium in the crystallization solution, normalized to the initial concentration, was fitted to a nonlinear logistic function using OriginPro Software (Origin Lab, Northhampton, Mass.). The logistic function relating calcium concentration to time is given by
where [Ca]t is the normalized calcium concentration at time t, A1 is the normalized initial supersaturation concentration (i.e at t=0), A2 is the normalized equilibrium concentration (i.e. at t=∞), p is the hill coefficient which represents slope of the curve at midpoint, and t1/2 is the crystallization half-time (CHT), defined as the time at which crystallization is 50% complete (i.e. [Ca]t1/2=[…]). A1 was fixed at 1, and A2, p and t1/2 were obtained from fitting the data to equation 1. CHT was used as a measure of inhibition potentials of the peptides. A one-way ANOVA in combination with Tukey post hoc test at p<0.05 level was used to probe statistical significance. Applicants' studied the effects of experimental parameters including volume, shaking and temperature on crystallization in designing a high-throughput screening assay. Applicants have shown the logistic model effectively represents the three phases: induction, crystal growth and equilibrium observed in our setup, and CHT (t1/2) can be used as a measure of efficacy of potential crystal growth modifiers. The peptide library screened comprised of Asp and Ala residues (peptides D1-D13) at optimized assay conditions of 37° C., crystallization volume of 600 μL in a shaking environment. […] The high throughput of the assay provides the opportunity to assess the growth modulation potential of crystal growth modifiers at varying modifier concentrations, supersaturations and ionic strengths with relative ease. […] Finally, the assay can be translated to other crystallization systems in a relatively straightforward fashion for rational design and discovery of growth modifiers for specific applications.

[3] = Bulk crystallization studies of COM crystal size and habit (optical microscopy, SEM, AFM); details: for COM crystal habit / morphology: bulk crystallization with 20 μg/ml peptide
Protocol: FIGS. 4A-4B show macroscopic characterization of COM crystals from bulk crystallization in solutions of 0.5 mM CaC2O4 and 20 μg/ml peptide. Optical microscopy was used to measure: Percent distribution of elongated hexagonal platelet (shaded bars) and diamond platelet (pattern bars) crystal morphologies (FIG. 4A); and length of the COM (100) basal surface measured along the direction (i.e. apical tip-to-tip distance) for hexagonal and diamond morphologies (FIG. 4B). Data in (FIG. 4A) and (FIG. 4B) are the average of three separate crystallization experiments performed at 60° C. for 3 days (error bars equal one standard deviation). Data for peptide D4 (diamond habit) was omitted based on too few crystals for statistical analysis;
COM crystals for bulk crystallization studies were synthesized using a reported procedure that produces micron-sized crystals with large basal (100) surfaces. COM crystals prepared with molar composition 0.7 mM CaCl2: 0.7 mM Na2C2O4: 150 mM NaCl are referred to as the control. Growth solutions prepared with peptides used 20 μg/ml of the additive (unless otherwise stated). The crystals were characterized by optical microscopy using a Leica DM2500-M microscope, scanning electron microscope (SEM) using a FEI 235 Dual-Beam Focused Ion-beam instrument, atomic force microscopy (AFM) using an Asylum MFP-3D-SA instrument (Santa Barbara, Calif.), and a calcium ion-selective electrode (ISE, ThermoScientific).
ISE measurements can be used to screen peptide efficacy, but provide little information regarding the specificity of peptide binding to different surfaces of COM crystals. To this end, Applicants used a second analysis step to identify the effect of peptides on COM crystal size and habit. The influence of the peptide library on macroscopic properties of COM crystals was assessed using bulk crystallization studies and optical and scanning electron microscopy to characterize COM crystals grown in the presence of peptides. In vitro, COM crystallization yields elongated hexagonal platelets with {100} basal surfaces bounded by {010} and crystallographically equivalent {121} apical surfaces (FIG. 3A). […] Applicants observed that multiple peptides in the library reduced growth along the directions, which decreased the crystal aspect ratio (length-to-width) and shifted the morphology from hexagonal to diamond platelets. This change in crystal habit can be attributed to the preferential binding of peptides to COM {121} surfaces, which slows growth along the naturally fast growth directions within the (100) plane.
To more systematically assess the surface topography of COM crystals, Applicants used atomic force microscopy (AFM) to probe the effect of peptides on COM (100) surface roughness. Crystals extracted from control and peptide D5 batches were prepared on AFM sample disks and imaged in air. The RMS roughness for (100) surfaces of hexagonal-shaped crystals from the control and test peptide D5 were approximately 1.0 and 4.3 nm, respectively.
Crystal batches prepared in bulk studies were analyzed using optical microscopy to quantify changes in COM crystal size and aspect ratio. […] Although there were clear differences in the percent population of diamond-shaped crystals among peptides tested in this study, Applicants observed that the size of diamond crystals were generally the same, irrespective of peptide sequence (FIG. 4B). The majority of COM hexagonal platelets in peptide samples had similar size and aspect ratio as the control (here Applicants only report the length of COM crystals in FIG. 4B). A notable exception, however, was peptide D4, which produced a 22% increase in the length-to-width aspect ratio of COM hexagonal crystals, and an increase in the length from 35 μm (control) to 75 μm (peptide D4).

[4] = ISE slopes in the presence of 20 μg/mL peptide, comparison X = D vs X = E
[5] = Calcium ISE measurements of COM growth at room temperature, Glu-Ala peptide library

## ADAADDAADAADDAAAAA (Synthesized Calcium oxalate monohydrate inhibitory polypeptide) [D5]
[1]
  percent reduction in COM growth rate: 30%
[2]
  CHT (hr), crystallization half-time: 4.641 h
[3]; 20 μg/ml peptide, 60° C. for 3 days, optical microscopy, average of three experiments
  percentage of diamond-shaped crystals in total crystal population: largest populations of diamond-shaped crystals
[3]; AFM imaged in air
  RMS roughness of diamond-shaped crystals: 3.2 nm
[3]; AFM imaged in air, control approximately 1.0 nm
  RMS roughness of (100) surfaces of hexagonal-shaped crystals: ~4.3 nm

## A-E-A-A-E-E-A-A-A-A-A-A-E-A-A-E-A-A (AEAAEEAAAAAAEAAEAA; Synthesized Calcium oxalate monohydrate inhibitory polypeptide) [E7]
[3]; SEM
  COM crystal habit / morphology: polydisperse distribution of crystals

## ADAAADDAAAAAAAADAA (Synthesized Calcium oxalate monohydrate inhibitory polypeptide) [D7]
[1]
  percent reduction in COM growth rate: < 1%
[2]
  CHT (hr), crystallization half-time: 5.771 h
[3]; SEM, 20 μg/ml peptide
  [100] thickness of hexagonal platelets relative to control: decreased the [100] thickness of hexagonal platelets by nearly a factor of two

## ADAAADDAAADAAADDAA (Synthesized Calcium oxalate monohydrate inhibitory polypeptide) [D9]
[1]
  percent reduction in COM growth rate: 40%
[1]; [4]
  % inhibition: 36 ± 8%
[1]; ISE, 20 μg/ml, series D7, D8, D9
  increase in peptide efficacy on replacing L-Ala spacer with L-Asp binder (relative to peptide D7): ~70
[2]
  CHT (hr), crystallization half-time: 7.277 h

## ADADADADADADADADAD (Synthesized Calcium oxalate monohydrate inhibitory polypeptide) [D13]
[2]
  CHT (hr), crystallization half-time: 8.114 h

## ADAAADDDAAADAAADDD (Synthesized Calcium oxalate monohydrate inhibitory polypeptide) [D6]
[2]
  CHT (hr), crystallization half-time: 5.041 h
[3]; 20 μg/ml peptide
  factor of increase of the [001] length of hexagonal COM crystals relative to the control: 1.5

## ADAAADAADAADDAADAA (Synthesized Calcium oxalate monohydrate inhibitory polypeptide) [D3]
[2]
  CHT (hr), crystallization half-time: 4.142 h

## ADDAADAADAADDAADDA (Synthesized Calcium oxalate monohydrate inhibitory polypeptide) [D12]
[2]
  CHT (hr), crystallization half-time: 7.135 h

## AADAAAAADDAAAADAAA (Synthesized Calcium oxalate monohydrate inhibitory polypeptide) [D2]
[2]
  CHT (hr), crystallization half-time: 3.533 h

## DDDAAAAADDDAAAAADD (Synthesized Calcium oxalate monohydrate inhibitory polypeptide) [D1]
[2]
  CHT (hr), crystallization half-time: 6.482 h
[3]; 20 μg/ml peptide
  factor of increase of the [001] length of hexagonal COM crystals relative to the control: 2.0
[3]; SEM
  COM crystal habit / morphology: small {121} surface area

## ADAADDAAAAAADAADAA (Synthesized Calcium oxalate monohydrate inhibitory polypeptide) [D11]
[2]
  CHT (hr), crystallization half-time: 5.767 h
[3]; SEM
  COM crystal habit / morphology: large {121} surface area

## A-E-A-A-A-E-E-A-A-A-E-A-A-A-E-E-A-A (AEAAAEEAAAEAAAEEAA; Synthesized Calcium oxalate monohydrate inhibitory polypeptide) [E5]
[1]; [5]
  % inhibition: 36 ± 21%
[1]; [4]
  % inhibition: 36 ± 21%

## ADAADAAADAADDAADAA (Synthesized Calcium oxalate monohydrate inhibitory polypeptide) [D10]
[1]; [4]
  % inhibition: 36 ± 5%
[2]
  CHT (hr), crystallization half-time: 6.054 h

## A-E-A-A-E-A-A-A-E-A-A-E-E-A-A-E-A-A (AEAAEAAAEAAEEAAEAA; Synthesized Calcium oxalate monohydrate inhibitory polypeptide) [E6]
[1]; [5]
  % inhibition: 52 ± 16%
[1]; [4]
  % inhibition: 52 ± 16%
[3]; SEM
  COM crystal habit / morphology: polydisperse distribution of crystals; also recorded: less effective than E7

## A-E-A-A-E-A-A-E-A-A-E-A-A-E-A-A-E-A (AEAAEAAEAAEAAEAAEA; Synthesized Calcium oxalate monohydrate inhibitory polypeptide) [E3]
[1]; [4]
  % inhibition: 40 ± 18%
